Test systems include C. parapsilosis; A. fumigatus; Cryptococcus neoformans; Histoplasma capsulatum; C. albicans.
What all share (conditions): in vitro

Bridge positions count the residues as written; N and C are the ends. Square brackets hold non-standard residues; d marks the D form. Peptide text beside a SMILES is read from it. * marks the point of attachment. ξ: configuration not given here. pTerphenylCO(4''-OnC5H11) = CCCCCOc1ccc(-c2ccc(-c3ccc(C(=O)*)cc3)cc2)cc1; Pro(3S-OH,4S-Me) = C[C@H]1CN[C@H](C(=O)O)[C@H]1O; hTyr(3R-OH) = N[C@H](C(=O)O)[C@H](O)Cc1ccc(O)cc1; Hyp = O=C(O)[C@@H]1C[C@@H](O)CN1; Thr(3ξ) = CC(O)[C@H](N)C(=O)O; Orn = NCCC[C@H](N)C(=O)O; dDap = NC[C@@H](N)C(=O)O; Dap = NC[C@H](N)C(=O)O

Take `CCCCCOc1ccc(-c2ccc(-c3ccc(C(=O)NC[C@H]4NC(=O)CNC(=O)[C@@H]5[C@@H](O)[C@@H](C)CN5C(=O)[C@H](C(C)O)NC(=O)[C@H]([C@H](O)Cc5ccc(O)cc5)NC(=O)[C@@H]5C[C@@H](O)CN5C(=O)[C@H](C(C)O)NC4=O)cc3)cc2)cc1` (stereo partly drawn) [E7-14(a)] (cyclo(G[dDap](pTerphenylCO(4''-OnC5H11))[Thr(3ξ)][Hyp][hTyr(3R-OH)][Thr(3ξ)][Pro(3S-OH,4S-Me)])): in the test with C. parapsilosis, the “Minimal Inhibitory Concentration MIC C. parapsilosis” value was more than 20 µg/mL. The “Minimal Inhibitory Concentration MIC A. fumigatus” value in the test on A. fumigatus is more than 20 µg/mL. Besides, the “Minimal Inhibitory Concentration MIC Cryptococcus neoformans” value in the test on Cryptococcus neoformans was more than 20 µg/mL. In the test with Histoplasma capsulatum, the “Minimal Inhibitory Concentration MIC Histoplasma capsulatum” value stood at 0.312 µg/mL. The “Minimal Inhibitory Concentration MIC C. albicans” value in the test on C. albicans turned out to be 0.312 µg/mL.
With `CCCCCOc1ccc(-c2ccc(-c3ccc(C(=O)N[C@H]4CNC(=O)[C@H](CN)NC(=O)[C@@H]5[C@@H](O)[C@@H](C)CN5C(=O)[C@H](C(C)O)NC(=O)[C@H]([C@H](O)Cc5ccc(O)cc5)NC(=O)[C@@H]5C[C@@H](O)CN5C(=O)[C@H](C(C)O)NC4=O)cc3)cc2)cc1` (stereo partly drawn) [Compound E8-8] ({pTerphenylCO(4''-OnC5H11)}-[Dap][Thr(3ξ)][Hyp][hTyr(3R-OH)][Thr(3ξ)][Pro(3S-OH,4S-Me)][Dap]; lactam 1-C), the “Minimal Inhibitory Concentration MIC C. parapsilosis” value with C. parapsilosis was found to be 0.625 µg/mL. The “Minimal Inhibitory Concentration MIC A. fumigatus” value in the test on A. fumigatus came out at 5.0 µg/mL. Further, in the test on Cryptococcus neoformans, the “Minimal Inhibitory Concentration MIC Cryptococcus neoformans” value was more than 20 µg/mL. Further, the “Minimal Inhibitory Concentration MIC Histoplasma capsulatum” value with Histoplasma capsulatum was found to be 0.312 µg/mL. In the test with C. albicans, the “Minimal Inhibitory Concentration MIC C. albicans” value came out at 0.078 µg/mL.
For `CCCCCOc1ccc(-c2ccc(-c3ccc(C(=O)N[C@H]4CCCNC(=O)[C@@H]5[C@@H](O)[C@@H](C)CN5C(=O)[C@H](C(C)O)NC(=O)[C@H]([C@H](O)Cc5ccc(O)cc5)NC(=O)[C@@H]5C[C@@H](O)CN5C(=O)[C@H](Cc5ccc(O)cc5)NC4=O)cc3)cc2)cc1` (stereo partly drawn) [Compound E5-7] ({pTerphenylCO(4''-OnC5H11)}-[Orn]Y[Hyp][hTyr(3R-OH)][Thr(3ξ)][Pro(3S-OH,4S-Me)]; lactam 1-C), in the test with C. parapsilosis, the “Minimal Inhibitory Concentration MIC C. parapsilosis” value is more than 20 µg/mL. The “Minimal Inhibitory Concentration MIC A. fumigatus” value in the test on A. fumigatus was more than 20 µg/mL. Besides, the “Minimal Inhibitory Concentration MIC Histoplasma capsulatum” value in the test with Histoplasma capsulatum was more than 20 µg/mL. In addition, the “Minimal Inhibitory Concentration MIC C. albicans” value in the test with C. albicans is more than 20 µg/mL.
On to `CCCCCOc1ccc(-c2ccc(-c3ccc(C(=O)N[C@H]4CCCNC(=O)[C@@H]5[C@@H](O)[C@@H](C)CN5C(=O)[C@H](C(C)O)NC(=O)[C@H]([C@H](O)Cc5ccc(O)cc5)NC(=O)[C@@H]5C[C@@H](O)CN5C(=O)[C@H](C(C)O)NC4=O)cc3)cc2)cc1` (stereo partly drawn) [Compound E1-3] ({pTerphenylCO(4''-OnC5H11)}-[Orn][Thr(3ξ)][Hyp][hTyr(3R-OH)][Thr(3ξ)][Pro(3S-OH,4S-Me)]; lactam 1-C), for which the “Minimal Inhibitory Concentration MIC C. parapsilosis” value in the test with C. parapsilosis was 0.156 µg/mL. The “Minimal Inhibitory Concentration MIC A. fumigatus” value in the test with A. fumigatus turned out to be 0.078 µg/mL. The “Minimal Inhibitory Concentration MIC Histoplasma capsulatum” value in the test on Histoplasma capsulatum was found to be 0.156 µg/mL. In addition, the “Minimal Inhibitory Concentration MIC C. albicans” value with C. albicans came to 0.005 µg/mL.
`CCCCCOc1ccc(-c2ccc(-c3ccc(C(=O)N[C@H]4CNC(=N)NC(=O)[C@@H]5[C@@H](O)[C@@H](C)CN5C(=O)[C@H](C(C)O)NC(=O)[C@H]([C@H](O)Cc5ccc(O)cc5)NC(=O)[C@@H]5C[C@@H](O)CN5C(=O)[C@H](C(C)O)NC4=O)cc3)cc2)cc1` (stereo partly shown) [Compound E6-6]: in the test on C. parapsilosis, the “Minimal Inhibitory Concentration MIC C. parapsilosis” value is more than 20 µg/mL. The “Minimal Inhibitory Concentration MIC A. fumigatus” value in the test on A. fumigatus was more than 20 µg/mL. Further, the “Minimal Inhibitory Concentration MIC Histoplasma capsulatum” value in the test on Histoplasma capsulatum was more than 20 µg/mL. For the same compound, the “Minimal Inhibitory Concentration MIC C. albicans” value with C. albicans was 0.078 µg/mL.

The values are drawn from patent US6939946B2, “Ring modified cyclic peptide analogs” (Eli Lilly and Company, priority 1998, dated 2005).
